Results from patent US20200187502A1, “MICROBIOCIDAL OXADIAZOLE DERIVATIVES” (SYNGENTA PARTICIPATIONS AG, priority 2017, published 2020).

Key:
[1] = tested on: Puccinia recondita f. Sp. Tritici; assay: Fungicidal activity, wheat leaf disc curative (brown rust); assay type: in vivo; conditions: foliar, 200 ppm in the applied formulation, wheat leaf segments cv. Kanzler, curative (applied 1 day after inoculation), compared to untreated control, 6 to 8 days after application, read-out: disease control
Description: Leaf disks or leaf segments of various plant species are cut from plants grown in a greenhouse. The cut leaf disks or segments are placed in multiwell plates (24-well format) onto water agar. The leaf disks are sprayed with a test solution before (preventative) or after (curative) inoculation. Compounds to be tested are prepared as DMSO solutions (max. 10 mg/ml) which are diluted to the appropriate concentration with 0.025% Tween20 just before spraying. The inoculated leaf disks or segments are incubated under defined conditions (temperature, relative humidity, light, etc.) according to the respective test system. A single evaluation of disease level is carried out 3 to 14 days after inoculation, depending on the pathosystem. Percent disease control relative to the untreated check leaf disks or segments is then calculated.
Wheat leaf segments cv. Kanzler are placed on agar in multiwell plates (24-well format). The leaf segments are then inoculated with a spore suspension of the fungus. Plates were stored in darkness at 19° C. and 75% relative humidity. The formulated test compound diluted in water was applied 1 day after inoculation. The leaf segments were incubated at 19° C. and 75% relative humidity under a light regime of 12 hours light/12 hours darkness in a climate cabinet and the activity of a compound was assessed as percent disease control compared to untreated when an appropriate level of disease damage appears in untreated check leaf segments (6 to 8 days after application).
The following compounds at 200 ppm in the applied formulation give at least 80% disease control in this test when compared to untreated control leaf disks under the same conditions, which show extensive disease development.

[2] = tested on: Glomerella lacenarium (Colletotrichum lacenarium); assay: Fungicidal activity, liquid culture, cucumber preventative (anthracnose); assay type: cell-based; conditions: 20 ppm in the applied formulation, liquid culture in PDB, inhibition of growth measured photometrically 3 to 4 days after application, compared to untreated control, read-out: disease control
Method in brief: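 Test compound in DMSO is placed in a microtiter plate, then potato dextrose broth containing conidia from cryogenic storage is added. Incubation runs at 24° C., and growth inhibition is read photometrically after 3 to 4 days.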

[3] = tested on: Puccinia recondita f. Sp. Tritici; assay: Fungicidal activity, wheat leaf disc preventative (brown rust); assay type: in vivo; conditions: foliar, 200 ppm in the applied formulation, wheat leaf segments cv. Kanzler, compared to untreated control, 7 to 9 days after application, read-out: disease control
Method in brief: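 Preventative leaf-segment test: spray application of diluted formulated compound on wheat cv. Kanzler, spore inoculation after 1 day. Percent control relative to untreated segments rated 7 to 9 days post-application, with incubation at 19° C, 75% relative humidity, 12 h photoperiod.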

CC(C)N(Cc1ccc(-c2noc(C(F)(F)F)n2)s1)C(=O)N(C)CC#N [Compound 4.82, 1-(cyanomethyl)-3-isopropyl-1-methyl-3-[[5-[5-(trifluoromethyl)-1,2,4-oxadiazol-3-yl]-2-thienyl]methyl]urea]
≥ 80%: pest or weed control at 200 ppm [1] | inhibition of growth at 20 ppm [2] | pest or weed control at 200 ppm [3]

O=C(C1CC1(F)F)N(Cc1ccc(-c2noc(C(F)(F)F)n2)s1)C1CC1 (stereo not drawn) [Compound 5.42, N-cyclopropyl-2,2-difluoro-N-[[5-[5-(trifluoromethyl)-1,2,4-oxadiazol-3-yl]-2-thienyl]methyl]cyclopropanecarboxamide]
≥ 80%: pest or weed control at 200 ppm [1] | inhibition of growth at 20 ppm [2] | pest or weed control at 200 ppm [3]

CN(Cc1ccc(-c2noc(C(F)(F)F)n2)s1)C(=O)C1CCCO1 (stereo not drawn) [Compound 5.22, N-methyl-N-[[5-[5-(trifluoromethyl)-1,2,4-oxadiazol-3-yl]-2-thienyl]methyl]tetrahydrofuran-2-carboxamide]
≥ 80%: pest or weed control at 200 ppm [1] | inhibition of growth at 20 ppm [2] | pest or weed control at 200 ppm [3]

CON(Cc1ccc(-c2noc(C(F)(F)F)n2)s1)C(=O)N(CC(F)F)C1CC1 [Compound 1.59, 1-cyclopropyl-1-(2,2-difluoroethyl)-3-methoxy-3-[[5-[5-(trifluoromethyl)-1,2,4-oxadiazol-3-yl]-2-thienyl]methyl]urea]
≥ 80%: pest or weed control at 200 ppm [1] | inhibition of growth at 20 ppm [2] | pest or weed control at 200 ppm [3]

CON(C)C(=O)N(Cc1ccc(-c2noc(C(F)(F)F)n2)s1)OC [Compound 1.6, 1,3-dimethoxy-1-methyl-3-[[5-[5-(trifluoromethyl)-1,2,4-oxadiazol-3-yl]-2-thienyl]methyl]urea]
≥ 80%: pest or weed control at 200 ppm [1] | inhibition of growth at 20 ppm [2] | pest or weed control at 200 ppm [3]

COC(C)C(=O)N(Cc1ccc(-c2noc(C(F)(F)F)n2)s1)C1CC1 (stereo not drawn) [Compound 4.14, N-cyclopropyl-2-methoxy-N-[[5-[5-(trifluoromethyl)-1,2,4-oxadiazol-3-yl]-2-thienyl]methyl]propanamide]
≥ 80%: pest or weed control at 200 ppm [1] | inhibition of growth at 20 ppm [2] | pest or weed control at 200 ppm [3]

N#CCC(=O)N(Cc1ccc(-c2noc(C(F)(F)F)n2)s1)C1CC1 [Compound 4.59, 2-cyano-N-cyclopropyl-N-[[5-[5-(trifluoromethyl)-1,2,4-oxadiazol-3-yl]-2-thienyl]methyl]acetamide]
≥ 80%: pest or weed control at 200 ppm [1] | inhibition of growth at 20 ppm [2] | pest or weed control at 200 ppm [3]

CCN(CC)C(=O)N(Cc1ccc(-c2noc(C(F)(F)F)n2)s1)C1CC1 [Compound 4.90, 1-cyclopropyl-3,3-diethyl-1-[[5-[5-(trifluoromethyl)-1,2,4-oxadiazol-3-yl]-2-thienyl]methyl]urea]
≥ 80%: pest or weed control at 200 ppm [1] | inhibition of growth at 20 ppm [2] | pest or weed control at 200 ppm [3]

CN(Cc1ccc(-c2noc(C(F)(F)F)n2)s1)C(=O)C1(C)COC1 [Compound 5.23, N,3-dimethyl-N-[[5-[5-(trifluoromethyl)-1,2,4-oxadiazol-3-yl]-2-thienyl]methyl]oxetane-3-carboxamide]
≥ 80%: pest or weed control at 200 ppm [1] | inhibition of growth at 20 ppm [2] | pest or weed control at 200 ppm [3]

CCN(Cc1ccc(-c2noc(C(F)(F)F)n2)s1)C(=O)C1(C)CC1 [Compound 5.12, N-ethyl-1-methyl-N-[[5-[5-(trifluoromethyl)-1,2,4-oxadiazol-3-yl]-2-thienyl]methyl]cyclopropanecarboxamide]
≥ 80%: pest or weed control at 200 ppm [1] | inhibition of growth at 20 ppm [2] | pest or weed control at 200 ppm [3]

CCN(Cc1ccc(-c2noc(C(F)(F)F)n2)s1)C(=O)C1CCCO1 (stereo not drawn) [Compound 5.13, N-ethyl-N-[[5-[5-(trifluoromethyl)-1,2,4-oxadiazol-3-yl]-2-thienyl]methyl]tetrahydrofuran-2-carboxamide]
≥ 80%: pest or weed control at 200 ppm [1] | inhibition of growth at 20 ppm [2] | pest or weed control at 200 ppm [3]

CCN(Cc1ccc(-c2noc(C(F)(F)F)n2)s1)C(=O)N(CCOC)CCOC [Compound 4.74, 1-ethyl-3,3-bis(2-methoxyethyl)-1-[[5-[5-(trifluoromethyl)-1,2,4-oxadiazol-3-yl]-2-thienyl]methyl]urea]
≥ 80%: pest or weed control at 200 ppm [1] | inhibition of growth at 20 ppm [2] | pest or weed control at 200 ppm [3]

CCCN(CC1CC1)C(=O)N(Cc1ccc(-c2noc(C(F)(F)F)n2)s1)OC [Compound 1.60, 1-(cyclopropylmethyl)-3-methoxy-1-propyl-3-[[5-[5-(trifluoromethyl)-1,2,4-oxadiazol-3-yl]-2-thienyl]methyl]urea]
≥ 80%: pest or weed control at 200 ppm [1] | inhibition of growth at 20 ppm [2] | pest or weed control at 200 ppm [3]

CN(Cc1ccc(-c2noc(C(F)(F)F)n2)s1)C(=O)C(=O)c1cccs1 [Compound 6.52, N-methyl-2-oxo-2-(2-thienyl)-N-[[5-[5-(trifluoromethyl)-1,2,4-oxadiazol-3-yl]-2-thienyl]methyl]acetamide]
≥ 80%: pest or weed control at 200 ppm [1] | inhibition of growth at 20 ppm [2] | pest or weed control at 200 ppm [3]

CN(Cc1ccc(-c2noc(C(F)(F)F)n2)s1)C(=O)N1CCC2(CC2)C1 [Compound 5.55, N-methyl-N-[[5-[5-(trifluoromethyl)-1,2,4-oxadiazol-3-yl]-2-thienyl]methyl]-5-azaspiro[2.4]heptane-5-carboxamide]
≥ 80%: pest or weed control at 200 ppm [1] | inhibition of growth at 20 ppm [2] | pest or weed control at 200 ppm [3]

CC(C)N(Cc1ccc(-c2noc(C(F)(F)F)n2)s1)C(=O)NC1CC1 [Compound 5.59, 3-cyclopropyl-1-isopropyl-1-[[5-[5-(trifluoromethyl)-1,2,4-oxadiazol-3-yl]-2-thienyl]methyl]urea]
≥ 80%: pest or weed control at 200 ppm [1] | inhibition of growth at 20 ppm [2] | pest or weed control at 200 ppm [3]

O=C(C1CC1)N(Cc1ccc(-c2noc(C(F)(F)F)n2)s1)OCC(F)F [Compound 5.7, N-(2,2-difluoroethoxy)-N-[[5-[5-(trifluoromethyl)-1,2,4-oxadiazol-3-yl]-2-thienyl]methyl]cyclopropanecarboxamide]
≥ 80%: pest or weed control at 200 ppm [1] | inhibition of growth at 20 ppm [2] | pest or weed control at 200 ppm [3]

CC1CC1C(=O)N(Cc1ccc(-c2noc(C(F)(F)F)n2)s1)OCC(F)F (stereo not drawn) [Compound 5.50, N-(2,2-difluoroethoxy)-2-methyl-N-[[5-[5-(trifluoromethyl)-1,2,4-oxadiazol-3-yl]-2-thienyl]methyl]cyclopropanecarboxamide]
≥ 80%: pest or weed control at 200 ppm [1] | inhibition of growth at 20 ppm [2] | pest or weed control at 200 ppm [3]

CC(C)N(Cc1ccc(-c2noc(C(F)(F)F)n2)s1)C(=O)CC#N [Compound 4.49, 2-cyano-N-isopropyl-N-[[5-[5-(trifluoromethyl)-1,2,4-oxadiazol-3-yl]-2-thienyl]methyl]acetamide]
≥ 80%: pest or weed control at 200 ppm [1] | inhibition of growth at 20 ppm [2] | pest or weed control at 200 ppm [3]

CC(C)CC(=O)C(=O)N(C)Cc1ccc(-c2noc(C(F)(F)F)n2)s1 [Compound 6.51, N,4-dimethyl-2-oxo-N-[[5-[5-(trifluoromethyl)-1,2,4-oxadiazol-3-yl]-2-thienyl]methyl]pentanamide]
≥ 80%: pest or weed control at 200 ppm [1] | inhibition of growth at 20 ppm [2] | pest or weed control at 200 ppm [3]
